Experimental data from publication PMC11402785, “Structural basis for activity switching in polymerases determining the fate of let-7 pre-miRNAs” (Nature Structural & Molecular Biology, 2024).
Values belong to the molecule of their own block, whether it stands above or below them.

Tests used:
TUT7 [1] = target: T1, TUT7 (Homo sapiens, UniProt Q5VYS8); assay: in vitro uridylation of labelled pre-let-7g, denaturing PAGE; format: biochemical; settings: pre-let-7g RNA co-substrate, no LIN28A, 0.5 mM UTP, 5 mM MgCl2, 50 µM ZnCl2, pH 7.8, 37 °C
T1 construct: full-length wild type 1-1495; TEV-cleavable N-terminal His6-GST tag, C-terminal twin Strep tag; E. coli KRX
T1 sequence (Q5VYS8 1-1495): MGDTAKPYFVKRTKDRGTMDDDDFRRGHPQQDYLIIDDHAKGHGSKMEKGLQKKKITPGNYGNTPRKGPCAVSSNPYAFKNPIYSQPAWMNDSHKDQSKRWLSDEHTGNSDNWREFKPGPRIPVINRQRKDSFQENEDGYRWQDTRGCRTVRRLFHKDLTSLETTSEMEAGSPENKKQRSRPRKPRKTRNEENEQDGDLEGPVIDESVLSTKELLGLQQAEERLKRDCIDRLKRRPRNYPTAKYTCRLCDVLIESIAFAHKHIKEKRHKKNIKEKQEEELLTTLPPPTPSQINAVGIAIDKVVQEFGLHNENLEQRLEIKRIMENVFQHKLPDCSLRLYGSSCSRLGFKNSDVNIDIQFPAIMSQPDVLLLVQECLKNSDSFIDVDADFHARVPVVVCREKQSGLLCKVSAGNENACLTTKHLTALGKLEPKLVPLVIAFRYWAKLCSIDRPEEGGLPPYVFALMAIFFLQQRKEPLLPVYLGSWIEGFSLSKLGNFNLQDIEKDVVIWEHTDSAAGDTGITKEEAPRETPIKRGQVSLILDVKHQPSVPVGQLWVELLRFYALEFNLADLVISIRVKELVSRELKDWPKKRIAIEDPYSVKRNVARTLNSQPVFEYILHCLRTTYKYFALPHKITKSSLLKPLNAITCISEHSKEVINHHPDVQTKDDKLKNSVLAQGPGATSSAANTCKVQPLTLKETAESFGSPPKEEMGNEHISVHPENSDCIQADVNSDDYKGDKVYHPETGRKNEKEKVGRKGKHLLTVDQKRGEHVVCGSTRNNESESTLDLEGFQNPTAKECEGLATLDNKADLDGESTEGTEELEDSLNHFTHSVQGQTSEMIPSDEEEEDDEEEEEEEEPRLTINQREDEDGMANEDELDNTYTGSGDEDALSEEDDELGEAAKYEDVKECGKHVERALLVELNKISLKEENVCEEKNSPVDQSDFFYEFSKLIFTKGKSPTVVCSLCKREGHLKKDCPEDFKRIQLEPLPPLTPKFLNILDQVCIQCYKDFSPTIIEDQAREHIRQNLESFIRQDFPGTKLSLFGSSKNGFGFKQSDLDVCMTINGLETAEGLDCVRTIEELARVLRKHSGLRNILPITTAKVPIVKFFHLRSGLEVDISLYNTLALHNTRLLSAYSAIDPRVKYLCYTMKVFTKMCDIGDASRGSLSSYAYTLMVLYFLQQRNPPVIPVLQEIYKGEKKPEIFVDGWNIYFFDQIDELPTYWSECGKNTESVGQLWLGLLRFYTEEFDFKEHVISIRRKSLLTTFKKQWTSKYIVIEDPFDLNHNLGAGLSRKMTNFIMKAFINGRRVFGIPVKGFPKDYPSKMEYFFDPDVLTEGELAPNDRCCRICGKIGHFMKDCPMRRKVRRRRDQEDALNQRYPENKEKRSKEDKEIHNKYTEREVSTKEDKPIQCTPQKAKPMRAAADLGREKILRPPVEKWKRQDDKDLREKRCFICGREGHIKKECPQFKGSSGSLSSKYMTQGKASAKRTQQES

TUT7 [2] = target: T1, TUT7; assay: cryo-EM structure, […] Å; format: binding; settings: pre-let-7g, 2 mM CaCl2, 0.5 mM UTPαS, pH 7.8; catalytic pocket of the CM (active site)
[3] = target: T2, human terminal uridylyltransferase 7 (TUT7), full length (1-1495) (human, UniProt Q5VYS8 1-1495); assay: cryo-EM structure; ternary complexes of TUT7 or TUT4 with pre-let-7g RNA and LIN28A mixed at a molar ratio of 1:1.5:2, overnight on ice with 0.5 mM UTPalphaS, 2 mM DTT, 2 mM CaCl2, then SEC in 20 mM HEPES pH 7.8, 100 mM NaCl; settings: both partners purified
T2 construct: TUT7 (ZCCHC6), human, residues 1-1495, wild type, synthesised gene; The His6-GST tag is cleavable by tobacco etch virus protease; Unmodified (not PEGylated) enzyme was used for the complexes; also called ZCCHC6; source: E. coli KRX, purified (Strep-XT 4Flow beads, Heparin column, size-exclusion chromatography)
T2 sequence (looked up): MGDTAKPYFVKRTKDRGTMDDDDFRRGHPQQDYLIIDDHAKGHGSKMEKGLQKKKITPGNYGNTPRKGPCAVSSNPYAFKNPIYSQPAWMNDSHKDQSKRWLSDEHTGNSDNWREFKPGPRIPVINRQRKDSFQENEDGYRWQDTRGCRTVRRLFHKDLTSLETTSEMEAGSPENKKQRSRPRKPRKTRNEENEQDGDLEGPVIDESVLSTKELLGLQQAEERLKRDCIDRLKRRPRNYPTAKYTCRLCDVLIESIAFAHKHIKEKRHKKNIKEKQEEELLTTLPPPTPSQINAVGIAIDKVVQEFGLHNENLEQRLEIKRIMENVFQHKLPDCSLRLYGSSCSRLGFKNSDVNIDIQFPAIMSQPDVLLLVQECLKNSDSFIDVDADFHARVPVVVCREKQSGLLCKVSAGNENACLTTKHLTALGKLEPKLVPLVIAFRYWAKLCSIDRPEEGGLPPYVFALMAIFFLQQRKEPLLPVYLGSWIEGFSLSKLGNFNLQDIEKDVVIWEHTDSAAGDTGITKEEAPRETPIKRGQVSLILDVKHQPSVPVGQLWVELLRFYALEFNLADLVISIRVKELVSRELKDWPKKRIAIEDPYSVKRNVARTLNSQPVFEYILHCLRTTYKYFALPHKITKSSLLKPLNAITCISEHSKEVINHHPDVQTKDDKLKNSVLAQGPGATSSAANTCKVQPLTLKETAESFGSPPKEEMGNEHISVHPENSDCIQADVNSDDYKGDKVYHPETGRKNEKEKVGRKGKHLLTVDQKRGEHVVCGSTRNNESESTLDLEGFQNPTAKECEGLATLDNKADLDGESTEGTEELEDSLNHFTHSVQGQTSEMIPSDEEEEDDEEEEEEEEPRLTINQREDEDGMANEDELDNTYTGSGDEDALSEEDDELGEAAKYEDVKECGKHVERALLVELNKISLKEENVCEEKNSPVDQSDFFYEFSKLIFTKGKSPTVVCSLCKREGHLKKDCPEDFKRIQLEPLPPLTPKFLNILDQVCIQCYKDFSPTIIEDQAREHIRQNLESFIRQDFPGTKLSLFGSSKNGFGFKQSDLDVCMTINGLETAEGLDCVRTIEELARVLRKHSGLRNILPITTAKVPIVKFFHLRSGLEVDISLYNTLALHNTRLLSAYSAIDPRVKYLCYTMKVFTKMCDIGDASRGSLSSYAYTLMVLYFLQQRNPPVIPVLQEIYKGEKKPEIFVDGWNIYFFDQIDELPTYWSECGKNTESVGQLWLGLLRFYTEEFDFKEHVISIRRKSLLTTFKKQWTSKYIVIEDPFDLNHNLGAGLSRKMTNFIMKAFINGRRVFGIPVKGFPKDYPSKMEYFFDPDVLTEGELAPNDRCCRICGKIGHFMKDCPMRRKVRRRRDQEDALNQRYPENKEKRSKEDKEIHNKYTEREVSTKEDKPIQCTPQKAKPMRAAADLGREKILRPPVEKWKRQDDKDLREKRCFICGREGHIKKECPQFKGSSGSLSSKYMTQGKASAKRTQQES

TUT7 (ZCCHC6) = target: T3, TUT7 (ZCCHC6) (Homo sapiens, UniProt Q5VYS8 1-1495); assay: cryo-EM; UTPalphaS; binary complex, 3.55 A; EMSA: 20 mM HEPES pH 7.8, 100 mM NaCl, 2 mM CaCl2, 50 uM ZnCl2, 5% glycerol, 5 mM DTT, 0.5 mM UTP, RNase inhibitor, on ice 30 min; 0.1 uM RNA, 0.2 uM TUT, 0.3 uM LIN28A; native gel in 1x TBE at 4 C; settings: protein: recombinant; tags: N-term His6-GST (TEV cleavable), C-term twin-Strep; hairpin, 1 nt 3' overhang
T3 sequence: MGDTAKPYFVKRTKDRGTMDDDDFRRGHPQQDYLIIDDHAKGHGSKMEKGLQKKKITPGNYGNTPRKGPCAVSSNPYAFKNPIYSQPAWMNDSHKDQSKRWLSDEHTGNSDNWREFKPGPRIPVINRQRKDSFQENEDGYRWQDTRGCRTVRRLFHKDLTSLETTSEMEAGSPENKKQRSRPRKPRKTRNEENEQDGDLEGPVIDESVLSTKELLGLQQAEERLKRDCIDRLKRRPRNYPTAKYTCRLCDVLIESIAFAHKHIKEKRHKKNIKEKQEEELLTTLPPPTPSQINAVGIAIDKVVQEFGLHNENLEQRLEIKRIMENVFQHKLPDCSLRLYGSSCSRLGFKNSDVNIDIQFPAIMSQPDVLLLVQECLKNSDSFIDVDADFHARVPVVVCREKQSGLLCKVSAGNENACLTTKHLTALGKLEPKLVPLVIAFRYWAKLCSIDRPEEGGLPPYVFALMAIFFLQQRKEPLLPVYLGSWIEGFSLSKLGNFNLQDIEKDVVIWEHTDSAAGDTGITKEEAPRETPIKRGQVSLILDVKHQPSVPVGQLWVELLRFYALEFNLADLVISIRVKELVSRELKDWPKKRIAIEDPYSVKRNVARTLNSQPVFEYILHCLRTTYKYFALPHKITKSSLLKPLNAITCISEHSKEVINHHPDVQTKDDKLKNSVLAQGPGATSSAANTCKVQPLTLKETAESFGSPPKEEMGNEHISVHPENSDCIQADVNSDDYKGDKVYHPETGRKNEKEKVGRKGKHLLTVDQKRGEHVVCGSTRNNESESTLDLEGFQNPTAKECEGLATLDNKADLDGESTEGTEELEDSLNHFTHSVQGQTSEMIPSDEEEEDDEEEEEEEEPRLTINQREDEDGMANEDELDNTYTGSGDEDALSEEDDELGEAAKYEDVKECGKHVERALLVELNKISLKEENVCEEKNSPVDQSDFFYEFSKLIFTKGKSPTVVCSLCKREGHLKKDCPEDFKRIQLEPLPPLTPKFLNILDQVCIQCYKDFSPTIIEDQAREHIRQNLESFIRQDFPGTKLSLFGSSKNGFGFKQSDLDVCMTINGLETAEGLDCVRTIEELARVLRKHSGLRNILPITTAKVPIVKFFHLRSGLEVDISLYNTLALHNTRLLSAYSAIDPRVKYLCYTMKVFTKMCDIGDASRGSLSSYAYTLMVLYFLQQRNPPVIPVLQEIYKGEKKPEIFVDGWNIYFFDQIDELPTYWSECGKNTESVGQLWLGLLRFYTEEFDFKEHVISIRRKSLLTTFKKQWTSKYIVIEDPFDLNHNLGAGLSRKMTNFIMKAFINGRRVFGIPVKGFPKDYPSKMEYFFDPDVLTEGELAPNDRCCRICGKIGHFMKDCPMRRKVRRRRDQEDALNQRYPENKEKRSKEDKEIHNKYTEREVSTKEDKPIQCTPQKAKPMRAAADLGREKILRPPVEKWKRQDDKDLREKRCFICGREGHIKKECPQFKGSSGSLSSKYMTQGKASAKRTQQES

Molecule: O=c1ccn([C@@H]2O[C@H](COP(=O)(O)OP(=O)(O)OP(=O)(O)O)[C@@H](O)[C@H]2O)c(=O)[nH]1 [UTP]
in vitro uridylation of labelled pre-let-7g, denaturing PAGE (TUT7 [1]): In vitro activity assays for TUT7 showing mono-uridylation activity in the absence of LIN28A

Molecule: O=c1ccn([C@@H]2O[C@H](COP(O)(=S)OP(=O)(O)OP(=O)(O)O)[C@@H](O)[C@H]2O)c(=O)[nH]1 (stereo partly shown) [UTPαS]
cryo-EM structure, 3.55 Å (TUT7 [2]): UTPαS bound and stabilized by the critical residues; F1045, S1047, Q1124, L1126, N1130

binding result [3]: binds
B1: human LIN28A (natural protein)
chain: MGSVSNQQFAGGCAKAAEEAPEEAPEDAARAADEPQLLHGAGICKWFNVRMGFGFLSMTARAGVALDPPVDVFVHQSKLHMEGFRSLKEGEAVEFTFKKSAKGLESIRVTGPGGVFCIGSERRPKGKSMQKRRSKGDRCYNCGGLDHHAKECKLPPQPKKCHFCQSISHMVASCPLKAQQGPSAQGKPTYFREEEEEIHSPTLLPEAQN
notes: LIN28A, human, synthesised gene; Expressed as an N-terminal His6-GST fusion; removal of the tag is not described; The phrase 'full-length wild-type human TUT7 and human LIN28A' may or may not mean that LIN28A was full length; Only the ZK domain is resolved in the maps

B2: pre-let-7g (structured_RNA)
RNA: UGAGGUAGUAGUUUGUACAGUUUGAGGGUCUAUGAUACCACCCGGUACAGGAGAUAACUGUACAGGCCACUGCCUUGC
binding result (TUT7 (ZCCHC6)): binds
